Assay results: ChEMBL document CHEMBL4304757, “Synthetic heterocyclic candidates as promising α-glucosidase inhibitors: An overview” (Eur J Med Chem, 2019)
pIC50: −log10 of the molar value.

Molecular target: not listed separately
Assay: Inhibition of yeast alpha-glucosidase using p-nitrophenyl-alpha-d-glucopyranoside as substrate preincubated for 10 mins followed by substrate addition measured after 20 mins
Design: species or system Saccharomyces cerevisiae

Question: With `N#CC1=C(N)Oc2c(c(=O)[nH]c3c2ccc2ccccc23)C1c1ccncc1` (stereo unspecified) as the molecule, how does the pIC50 read?
Answer: 3.76 to 5.00

Question: With `N#CC1=C(N)Oc2c(c(=O)[nH]c3c2ccc2ccccc23)C1c1ccc(Br)cc1` (stereo unspecified) as the molecule, how does the pIC50 read?
Answer: 3.76 to 5.00

Question: With `N#CC1=C(N)Oc2c(c(=O)[nH]c3c2ccc2ccccc23)C1c1cccc(F)c1` (stereo unspecified) as the molecule, how does the pIC50 read?
Answer: 3.76 to 5.00

Question: With `Cc1ccsc1C1C(C#N)=C(N)Oc2c1c(=O)[nH]c1c2ccc2ccccc21` (stereo unspecified) as the molecule, how does the pIC50 read?
Answer: 3.76 to 5.00

Question: With `N#CC1=C(N)Oc2c(c(=O)[nH]c3c2ccc2ccccc23)C1c1ccccc1` (stereo unspecified) as the molecule, how does the pIC50 read?
Answer: 3.76 to 5.00

Question: With `N#CC1=C(N)Oc2c(c(=O)[nH]c3c2ccc2ccccc23)C1c1cccc([N+](=O)[O-])c1` (stereo unspecified) as the molecule, how does the pIC50 read?
Answer: 3.76 to 5.00

Question: With `N#CC1=C(N)Oc2c(c(=O)[nH]c3c2ccc2ccccc23)C1c1ccc(Cl)cc1` (stereo unspecified) as the molecule, how does the pIC50 read?
Answer: 5.00

Question: With `N#CC1=C(N)Oc2c(c(=O)[nH]c3c2ccc2ccccc23)C1c1ccccc1Br` (stereo unspecified) as the molecule, how does the pIC50 read?
Answer: 3.76 to 5.00

Question: With `N#CC1=C(N)Oc2c(c(=O)[nH]c3c2ccc2ccccc23)C1c1cccc(O)c1` (stereo unspecified) as the molecule, how does the pIC50 read?
Answer: 3.76 to 5.00

Question: With `N#CC1=C(N)Oc2c(c(=O)[nH]c3c2ccc2ccccc23)C1c1ccc([N+](=O)[O-])cc1` (stereo unspecified) as the molecule, how does the pIC50 read?
Answer: 3.76 to 5.00

Question: With `N#CC1=C(N)Oc2c(c(=O)[nH]c3c2ccc2ccccc23)C1c1ccc(O)cc1` (stereo unspecified) as the molecule, how does the pIC50 read?
Answer: 3.76 to 5.00

Question: With `COc1ccc(C2C(C#N)=C(N)Oc3c2c(=O)[nH]c2c3ccc3ccccc32)cc1OC` (stereo unspecified) as the molecule, how does the pIC50 read?
Answer: 3.76 to 5.00

Question: With `CN(C)c1ccc(C2C(C#N)=C(N)Oc3c2c(=O)[nH]c2c3ccc3ccccc32)cc1` (stereo unspecified) as the molecule, how does the pIC50 read?
Answer: 3.76 to 5.00

Question: With `Cc1ccc(C2C(C#N)=C(N)Oc3c2c(=O)[nH]c2c3ccc3ccccc32)cc1` (stereo unspecified) as the molecule, how does the pIC50 read?
Answer: 3.76 to 5.00

Question: With `N#CC1=C(N)Oc2c(c(=O)[nH]c3c2ccc2ccccc23)C1c1ccc(F)cc1` (stereo unspecified) as the molecule, how does the pIC50 read?
Answer: 4.82

Question: With `COc1cc(C2C(C#N)=C(N)Oc3c2c(=O)[nH]c2c3ccc3ccccc32)ccc1O` (stereo unspecified) as the molecule, how does the pIC50 read?
Answer: 3.76 to 5.00

Question: With `COc1ccc(C2C(C#N)=C(N)Oc3c2c(=O)[nH]c2c3ccc3ccccc32)cc1` (stereo unspecified) as the molecule, how does the pIC50 read?
Answer: 3.76 to 5.00

Molecular target: T1, Alpha glucosidase (Homo sapiens, UniProt O43451+P10253+P14410+Q2M2H8)
Assay: Inhibition of alpha-glucosidase (unknown origin) using p-nitrophenyl-alpha-d-glucopyranoside as substrate preincubated for 5 mins followed by substrate addition measured after 30 mins
Assay type: protein assay

Question: With `Cc1cccc(C(=O)/N=c2\scc(C)n2-c2cc(Cl)c(Cl)cc2Cl)c1` as the molecule, how does the pIC50 read?
Answer: 6.82 to 7.00

Question: With `Cc1cs/c(=N\C(=O)c2cc3ccccc3oc2=O)n1-c1cc(Cl)c(Cl)cc1Cl` as the molecule, how does the pIC50 read?
Answer: 6.82 to 7.00

Question: With `Cc1cs/c(=N\C(=O)c2ccco2)n1-c1cc(Cl)c(Cl)cc1Cl` as the molecule, how does the pIC50 read?
Answer: 6.82 to 7.00

Question: With `Cc1cs/c(=N\C(=O)c2ccccc2Cl)n1-c1cc(Cl)c(Cl)cc1Cl` as the molecule, how does the pIC50 read?
Answer: 6.82 to 7.00

Question: With `COc1ccc(C(=O)/N=c2\scc(C)n2-c2cc(Cl)c(Cl)cc2Cl)cc1` as the molecule, how does the pIC50 read?
Answer: 6.82 to 7.00

Molecular target: T1, Alpha glucosidase
Assay: Inhibition of alpha-glucosidase (unknown origin) using pNPG as substrate preincubated for 10 mins followed by substrate addition measured after 30 mins
Assay type: protein assay

Question: With `COc1ccc(-n2c(-c3c(-c4ccc(Cl)cc4)[nH]c4ccc(Cl)cc34)nc(-c3ccccc3)c2-c2ccccc2)cc1` as the molecule, how does the pIC50 read?
Answer: 4.01 to 5.08

Question: With `O=C(N/N=C/c1ccc(O)c(O)c1)c1cc2ccccc2[nH]1` as the molecule, how does the pIC50 read?
Answer: 3.65 to 5.64

Question: With `FC(F)(F)c1ccc(-c2[nH]c3ccccc3c2-c2nc(-c3ccccc3)c(-c3ccccc3)n2-c2ccccc2)cc1` as the molecule, how does the pIC50 read?
Answer: 4.01 to 5.08

Question: With `COc1ccc(O)c(/C=N/NC(=O)c2cc3ccccc3[nH]2)c1` as the molecule, how does the pIC50 read?
Answer: 3.65 to 5.64

Question: With `Brc1ccc(-n2c(-c3c(-c4cccc(Br)c4)[nH]c4ccccc34)nc(-c3ccccc3)c2-c2ccccc2)cc1` as the molecule, how does the pIC50 read?
Answer: 4.01 to 5.08

Question: With `Fc1ccc2[nH]c(-c3ccccc3)c(-c3nc(-c4ccccc4)c(-c4ccccc4)n3-c3ccccc3)c2c1` as the molecule, how does the pIC50 read?
Answer: 4.01 to 5.08

Question: With `COc1ccc(-n2c(-c3c(-c4cccc(Br)c4)[nH]c4ccccc34)nc(-c3ccccc3)c2-c2ccccc2)cc1` as the molecule, how does the pIC50 read?
Answer: 4.01 to 5.08

Molecular target: T1, Alpha glucosidase
Assay: Inhibition of alpha-glucosidase (unknown origin) using p-nitrophenyl-alpha-d-glucopyranoside as substrate preincubated for 10 mins followed by substrate addition measured after 30 mins
Assay type: protein assay

Question: With `CCOC(=O)C1=C(Nc2cccc([N+](=O)[O-])c2)C[C@@H](c2ccc(C)cc2)N(c2cccc([N+](=O)[O-])c2)[C@@H]1c1ccc(C)cc1` as the molecule, how does the pIC50 read?
Answer: 4.54 to 5.64

Question: With `O=C(NNC(=S)Nc1ccccc1F)c1ccc(-c2nnc(-c3ccccc3Cl)o2)cc1` as the molecule, how does the IC50 read?
Answer: 0.4 µM

Question: With `COc1ccc(NC(=S)NNC(=O)c2ccc(-c3nnc(-c4ccccc4Cl)o3)cc2)cc1` as the molecule, how does the pIC50 read?
Answer: 4.42 to 6.40

Question: With `O=C(NNC(=S)Nc1cccc(F)c1)c1ccc(-c2nnc(-c3ccccc3Cl)o2)cc1` as the molecule, how does the pIC50 read?
Answer: 4.42 to 6.40

Question: With `CCOC(=O)C1=C(Nc2cccc(Cl)c2)C[C@@H](c2ccc(Cl)cc2)N(c2cccc(Cl)c2)[C@@H]1c1ccc(Cl)cc1` as the molecule, how does the pIC50 read?
Answer: 4.54 to 5.64

Question: With `COc1ccccc1NC(=S)NNC(=O)c1ccc(-c2nnc(-c3ccccc3Cl)o2)cc1` as the molecule, how does the pIC50 read?
Answer: 4.42 to 6.40

Question: With `CCOC(=O)C1=C(Nc2cccc(F)c2)C[C@@H](c2ccc(Cl)cc2)N(c2cccc(F)c2)[C@@H]1c1ccc(Cl)cc1` as the molecule, how does the pIC50 read?
Answer: 4.54 to 5.64

Question: With `O=C(NNC(=S)Nc1ccc(Br)cc1)c1ccc(-c2nnc(-c3ccccc3Cl)o2)cc1` as the molecule, how does the pIC50 read?
Answer: 4.42 to 6.40

Question: For `CCOC(=O)C1=C(Nc2cccc(Br)c2)C[C@@H](c2ccc(Cl)cc2)N(c2cccc(Br)c2)[C@@H]1c1ccc(Cl)cc1`, which IC50 is on record?
Answer: 2.3 µM

Question: With `Cc1cccc(NC(=S)NNC(=O)c2ccc(-c3nnc(-c4ccccc4Cl)o3)cc2)c1` as the molecule, how does the pIC50 read?
Answer: 4.42 to 6.40

Question: With `O=C(NNC(=S)Nc1cccc([N+](=O)[O-])c1)c1ccc(-c2nnc(-c3ccccc3Cl)o2)cc1` as the molecule, how does the pIC50 read?
Answer: 4.42 to 6.40

Question: For `O=C(NNC(=S)Nc1ccc(C(F)(F)F)cc1)c1ccc(-c2nnc(-c3ccccc3Cl)o2)cc1`, which IC50 is on record?
Answer: 0.6 µM

Question: With `O=C(NNC(=S)Nc1ccc(F)cc1)c1ccc(-c2nnc(-c3ccccc3Cl)o2)cc1` as the molecule, how does the pIC50 read?
Answer: 4.42 to 6.40

Question: With `O=C(NNC(=S)Nc1ccc([N+](=O)[O-])cc1)c1ccc(-c2nnc(-c3ccccc3Cl)o2)cc1` as the molecule, how does the pIC50 read?
Answer: 4.42 to 6.40

Question: With `COc1cccc(NC(=S)NNC(=O)c2ccc(-c3nnc(-c4ccccc4Cl)o3)cc2)c1` as the molecule, how does the pIC50 read?
Answer: 4.42 to 6.40

Question: With `Cc1ccc(NC(=S)NNC(=O)c2ccc(-c3nnc(-c4ccccc4Cl)o3)cc2)cc1` as the molecule, how does the pIC50 read?
Answer: 4.42 to 6.40

Question: With `O=C(NNC(=S)Nc1ccccc1Br)c1ccc(-c2nnc(-c3ccccc3Cl)o2)cc1` as the molecule, how does the pIC50 read?
Answer: 4.42 to 6.40

Question: With `O=C(NNC(=S)Nc1ccc(Cl)cc1)c1ccc(-c2nnc(-c3ccccc3Cl)o2)cc1` as the molecule, how does the pIC50 read?
Answer: 4.42 to 6.40

Question: Which IC50 does the source give for `O=C(NNC(=S)Nc1ccccc1Cl)c1ccc(-c2nnc(-c3ccccc3Cl)o2)cc1` here?
Answer: 0.7 µM

Question: With `O=C(NNC(=S)Nc1ccc(Cl)c(Cl)c1)c1ccc(-c2nnc(-c3ccccc3Cl)o2)cc1` as the molecule, how does the pIC50 read?
Answer: 4.42 to 6.40

Molecular target: not listed separately
Assay: Inhibition of yeast alpha-glucosidase using p-nitrophenyl-alpha-d-glucopyranoside as substrate preincubated for 5 mins followed by substrate addition measured after 5 mins
Design: species or system Saccharomyces cerevisiae

Question: With `O=[N+]([O-])c1ccc2cc(-c3nnc(-c4cc(O)cc(O)c4)o3)oc2c1` as the molecule, how does the pIC50 read?
Answer: 3.79 to 4.92

Question: With `O=[N+]([O-])c1ccc2cc(-c3nnc(-c4cccc(Cl)c4)o3)oc2c1` as the molecule, how does the pIC50 read?
Answer: 3.79 to 4.92

Question: With `O=[N+]([O-])c1ccc2cc(-c3nnc(-c4ccccc4O)o3)oc2c1` as the molecule, how does the pIC50 read?
Answer: 3.79 to 4.92

Question: With `O=[N+]([O-])c1ccc2cc(-c3nnc(-c4cccc(O)c4)o3)oc2c1` as the molecule, how does the pIC50 read?
Answer: 3.79 to 4.92

Question: With `O=[N+]([O-])c1ccc2cc(-c3nnc(-c4cc(O)ccc4O)o3)oc2c1` as the molecule, how does the pIC50 read?
Answer: 3.79 to 4.92

Question: With `COc1ccc(-c2nnc(-c3cc4ccc([N+](=O)[O-])cc4o3)o2)c(O)c1` as the molecule, how does the pIC50 read?
Answer: 3.79 to 4.92

Question: With `O=[N+]([O-])c1ccc2cc(-c3nnc(-c4cccc(F)c4)o3)oc2c1` as the molecule, how does the pIC50 read?
Answer: 3.79 to 4.92

Question: With `O=[N+]([O-])c1ccc2cc(-c3nnc(-c4ccc(F)cc4)o3)oc2c1` as the molecule, how does the pIC50 read?
Answer: 3.79 to 4.92

Question: With `O=[N+]([O-])c1ccc2cc(-c3nnc(-c4ccc(O)cc4)o3)oc2c1` as the molecule, how does the pIC50 read?
Answer: 3.79 to 4.92

Question: With `O=[N+]([O-])c1ccc2cc(-c3nnc(-c4ccccc4F)o3)oc2c1` as the molecule, how does the pIC50 read?
Answer: 3.79 to 4.92

Question: With `O=[N+]([O-])c1ccc2cc(-c3nnc(-c4ccccc4Cl)o3)oc2c1` as the molecule, how does the pIC50 read?
Answer: 3.79 to 4.92

Question: With `COc1ccc(O)c(-c2nnc(-c3cc4ccc([N+](=O)[O-])cc4o3)o2)c1` as the molecule, how does the pIC50 read?
Answer: 3.79 to 4.92

Question: With `COc1ccc(-c2nnc(-c3cc4ccc([N+](=O)[O-])cc4o3)o2)cc1O` as the molecule, how does the pIC50 read?
Answer: 3.79 to 4.92

Question: With `O=[N+]([O-])c1ccc2cc(-c3nnc(-c4cccc(O)c4O)o3)oc2c1` as the molecule, how does the pIC50 read?
Answer: 4.92

Question: With `O=[N+]([O-])c1ccc2cc(-c3nnc(-c4ccc(O)cc4O)o3)oc2c1` as the molecule, how does the pIC50 read?
Answer: 3.79 to 4.92

Question: With `O=[N+]([O-])c1ccc2cc(-c3nnc(-c4ccc(O)c(O)c4)o3)oc2c1` as the molecule, how does the pIC50 read?
Answer: 3.79 to 4.92

Question: With `O=[N+]([O-])c1ccc2cc(-c3nnc(-c4ccc(Cl)cc4)o3)oc2c1` as the molecule, how does the pIC50 read?
Answer: 3.79 to 4.92
